Measurements taken from paper PMC6923176, “High-Throughput Screening of a 2-Keto-L-Gulonic Acid-Producing Gluconobacter oxydans Strain Based on Related Dehydrogenases” (Frontiers in Bioengineering and Biotechnology, 2019).

Legend:
Experiment in all cases: NADH consumption, A340
Format in all cases: biochemical
Conditions in all cases: NAD(P)H-dependent reduction; co-substrate, pH and temperature of the Km series not given (unit definition: NADH, pH 7.0, 37 C)
[1] = biological target: T1, ANI-2KR (2-KLG reductase, 2kr) (Aspergillus niger, UniProt A2Q988)
T1 construct: gene An01g07030; full length, synthetic gene without stop codon, BamHI/SalI in pET28a(+), His-tagged, E. coli BL21(DE3), Ni-NTA
T1 sequence (A2Q988 1-339): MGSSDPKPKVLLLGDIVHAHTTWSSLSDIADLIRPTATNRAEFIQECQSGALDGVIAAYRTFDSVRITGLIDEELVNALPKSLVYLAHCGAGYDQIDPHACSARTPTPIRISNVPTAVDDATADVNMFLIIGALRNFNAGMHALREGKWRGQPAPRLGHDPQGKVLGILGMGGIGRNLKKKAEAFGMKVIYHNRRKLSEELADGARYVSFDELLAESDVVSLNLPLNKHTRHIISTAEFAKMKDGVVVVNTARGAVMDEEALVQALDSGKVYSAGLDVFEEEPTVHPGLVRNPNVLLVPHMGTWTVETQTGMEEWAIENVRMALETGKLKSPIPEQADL

[2] = biological target: T2, CFR-2KR (2-KLG reductase, 2kr) (Citrobacter freundii, UniProt A0A0P8I5D5)
T2 construct: gene ghrB; full length, His-tagged from pET28a(+), EcoRI/SalI, E. coli BL21(DE3), Ni-NTA
T2 sequence (A0A0P8I5D5 1-324): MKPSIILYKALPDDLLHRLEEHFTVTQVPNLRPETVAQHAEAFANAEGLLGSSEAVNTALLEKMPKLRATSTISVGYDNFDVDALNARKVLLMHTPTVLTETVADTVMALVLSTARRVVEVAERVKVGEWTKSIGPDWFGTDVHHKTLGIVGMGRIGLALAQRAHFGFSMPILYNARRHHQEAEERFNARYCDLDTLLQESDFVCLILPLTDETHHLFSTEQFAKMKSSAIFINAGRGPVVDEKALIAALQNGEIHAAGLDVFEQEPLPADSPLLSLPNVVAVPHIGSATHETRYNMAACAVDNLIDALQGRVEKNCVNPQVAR

[3] = biological target: T3, ANI-GLUD (2-KLG reductase, GLUD) (Aspergillus niger, UniProt A0A1D8RK43)
T3 construct: full length, synthetic gene without stop codon, BamHI/SalI in pET28a(+), His-tagged, E. coli BL21(DE3), Ni-NTA
T3 sequence (A0A1D8RK43 1-331): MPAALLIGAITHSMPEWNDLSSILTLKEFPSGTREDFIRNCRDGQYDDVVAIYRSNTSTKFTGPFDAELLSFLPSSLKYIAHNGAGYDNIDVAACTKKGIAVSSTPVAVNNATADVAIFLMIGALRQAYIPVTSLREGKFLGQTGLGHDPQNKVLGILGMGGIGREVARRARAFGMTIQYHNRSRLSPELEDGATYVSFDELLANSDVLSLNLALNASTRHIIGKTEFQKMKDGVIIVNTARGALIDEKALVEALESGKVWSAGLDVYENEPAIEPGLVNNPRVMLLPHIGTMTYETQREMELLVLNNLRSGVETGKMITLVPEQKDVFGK

Measured: Km

O=C(O)C(=O)[C@@H](O)[C@H](O)[C@@H](O)CO [2-KLG, 2-keto-L-gulonic acid]
Km and Vmax values for 2-KLG reductases: all assays above
